According to patent publication US20250277208A1, “Method of Peptide Library Construction and Peptides Thereof” (Alcamena Stem Cell Therapeutics, LLC, priority 2024, published 2025):
Several values for one entry are separate records, joined by “and”; a condition that tells them apart may be missing. Identical values can stand only once. Like-named read-outs stand apart in the source and are kept apart here. Square brackets hold non-standard residues; d marks the D form. Ends that are not written are not given here. Phe(4-F) = N[C@@H](Cc1ccc(F)cc1)C(=O)O; Gla = N[C@@H](CC(C(=O)O)C(=O)O)C(=O)O; Cha = N[C@@H](CC1CCCCC1)C(=O)O

Tests used:
IL-6 = molecular target: T1, IL-6 (Homo sapiens, UniProt P05231); assay: Biacore surface plasmon resonance binding of peptides to immobilised IL-6; conditions: for affinity compared with the parent sequence, in words: termini protected
T1 construct: purchased R&D Systems BT7270B
Excerpt: Two DNA fragments were amplified from a synthetic fragment of the IL-6R. The 5′ fragment was amplified with forward primer and a mixture of 432 reverse primers, each containing an overhang of 6 codons. The 3′ fragment was amplified with a mixture of 432 forward primers, also containing overhangs of six degenerate codons and the reverse primer. Either the first or the second nucleotide of each codon was replaced with a degenerate base. Following PCR amplification, DNA fragments were phosphorylated and ligated leading to various sequence rearrangements shown at the bottom of the FIG. 3. Four hundred thirty-two forward and reverse oligos with an overhang of 6 codons from the IL-6R binding domain were used for PCR. A degenerate nucleotide was inserted at the first or second position of each codon. When ligated, these sequences generated a library of 1×10^13 different DNA sequences. The library of DNA sequences was taken through eight rounds of mRNA Display generating a peptide library. Eighteen of the most abundant peptides in the peptide library were synthesized in a linear form and tested for binding to IL-6 using Biacore. One of the peptides (#9) (“Peptide 9”) from the peptide library, with the sequence of […] The twelve non-terminal residues represent the PepFusion library-derived DNA sequences, while N-terminal serine and C-terminal glycine come from the flanking linkers and were kept as a precaution, in case linker sequences contributed to peptide interaction with its target.
Binding reactions were performed in HBS-P/2% DMSO buffer (10 mM Hepes, pH 7.4, 150 mM NaCl, 0.05% P-20, 2% DMSO), which was filtered through […] filters and degassed before use. Biotinylated recombinant human IL-6 (IL-6-Biotin) was bound to the surface of a Biacore SA sensor chip of a Biacore T200 surface plasmon resonance unit as follows. The streptavidin surface of the chip (flow cells 1 and 2) was activated by injecting 20 μl of 1 M NaCl/50 mM NaOH at 20 μl/min, in 3 pulses. Biotinylated Recombinant Human IL6 was diluted with HBS-P buffer and an aliquot of 100 μl (2 micrograms/ml) was injected into flow cell 2 at 5 microliters/min to yield a signal of 1400 response units (RU) (10 microliters were injected). Any remaining activated residues on the streptavidin surface of flow cells 1 and 2 were blocked with 30 microliters 500 nM free Biotin.
(§1) Affinity scouting assay was performed at a flow rate of 30 microliters/min at 25° C. The analyte (60 microliter aliquots of peptides, at concentrations of 20 μM in HBS-P/2% DMSO buffer) was injected into flow cells 1 and 2 and the association reaction was recorded. The surface was then washed with HBS-P/2% DMSO for 3 min and the dissociation of the analyte from the bound IL6 was followed over time. The surfaces of the flow cells were regenerated with 30 microliters of 10 mM NaOH, followed 50 microliters of HBS-P/2% DMSO buffer.
as §1, with “Kinetics analysis of binding was performed” for “Affinity scouting assay was performed”, “concentrations of 0, 1.25 μM, 2.5 μM, 5 μM, 10 μM and 20 μM” for “concentrations of 20 μM”, “DMSO buffer. Sensorgrams were analyzed using BIAeveluation 3.2.1 software (Cytiva). Values from the reference flow cell were subtracted to obtain the values for specific binding. Data were globally fitted to the Langmuir model for a 1:1 mass transfer binding.” for “DMSO buffer.”

[1] = molecular target: T2, Biotinylated recombinant human IL-6 (human, UniProt P05231 30-212, biotinylated (sites not given)); assay: SPR (Biacore), IL-6 on chip
T2 construct: In the cell bioassay IL-6 (0.5 nM) was used in solution; also called Interleukin-6; IL-6-Biotin

[2] = termini protected (acetylated, amidated), read-out: KD
[3] = Table 2, N terminus acetylated, C terminus amidated, cells printed in μM, read-out: KD (nM) P < 0.05
[4] = Table 1, N and C termini not protected, cells printed in μM, read-out: KD (nM) P < 0.05

## Ac-ATIRDLIRMMCHIVG-NH2 [Peptide 51, ATIRDLIRMMCHIVG]
IL-6; [2]
  Kd: ~0.1 µM and 0.128 µM

## Ac-ATIRDLIRMMKHIVG-NH2 [Peptide 96, ATIRDLIRMMKHIVG]
IL-6; [3]
  Kd: > 10 µM

## Ac-ATIRDLIRMMKVCVG-NH2 [Peptide 82, ATIRDLIRMMKVCVG]
IL-6; [2]
  Kd: 0.108 µM

## Ac-ATIRDLIRMMKVIVG-NH2 [Peptide 83, ATIRDLIRMMKVIVG]
IL-6; [2]
  Kd: 0.563 µM

## Ac-ATIRDLLRMMKHIVG-NH2 [Peptide 95, ATIRDLLRMMKHIVG]
IL-6; [3]
  Kd: > 10 µM

## Ac-ATIRDLLRRMKHIVG-NH2 [Peptide 94, ATIRDLLRRMKHIVG]
IL-6; [3]
  Kd: > 10 µM

## Ac-FAFRDLIRMMCHIVG-NH2 [Peptide 58, FAFRDLIRMMCHIVG]
IL-6; [2]
  Kd: ~0.1 µM and 0.071 µM

## Ac-FAFRDLIRMMCVIVG-NH2 [Peptide 78, FAFRDLIRMMCVIVG]
IL-6; [2]
  Kd: ≤ 1.5 µM

## Ac-FAFRDLIRMMKHIVG-NH2 [Peptide 77, FAFRDLIRMMKHIVG]
IL-6; [2]
  Kd: ≤ 1.5 µM and 0.405 µM

## Ac-FAFRDLIRMMKVCVG-NH2 [Peptide 79, FAFRDLIRMMKVCVG]
IL-6; [2]
  Kd: 0.247 µM

## Ac-FAFRDLIRMMKVIVG-NH2 [Peptide 76, FAFRDLIRMMKVIVG]
IL-6; [2]
  Kd: ≤ 1.5 µM

## Ac-FAFRDLLRMMCHIVG-NH2 [Peptide 75, FAFRDLLRMMCHIVG]
IL-6; Table 2
  affinity compared with the parent sequence, in words: not improved

## Ac-FSFRDLIRMMCHIVG-NH2 [Peptide 74, FSFRDLIRMMCHIVG]
IL-6; [3]
  Kd: > 10 µM

## Ac-FSFRDLLRMMCHIVG-NH2 [Peptide 80, FSFRDLLRMMCHIVG]
IL-6; Table 2
  affinity compared with the parent sequence, in words: not improved

## Ac-FSFRDLLRMMKHIVG-NH2 [Peptide 92, FSFRDLLRMMKHIVG]
IL-6; [3]
  Kd: > 10 µM

## Ac-FSFRDLLRRMCHIVG-NH2 [Peptide 72, FSFRDLLRRMCHIVG]
IL-6; [2]
  Kd: 0.027 µM

## Ac-FSFRDLLRRMKHIVG-NH2 [Peptide 91, FSFRDLLRRMKHIVG]
IL-6; [3]
  Kd: > 10 µM

## Ac-FSVRDLLRMMKHIVG-NH2 [Peptide 86, FSVRDLLRMMKHIVG]
IL-6; [3]
  Kd: > 10 µM

## Ac-FSVRDLLRRMKHIVG-NH2 [Peptide 85, FSVRDLLRRMKHIVG]
IL-6; [3]
  Kd: > 10 µM

## Ac-SFRDLLRMMKHIVG-NH2 [Peptide 89, SFRDLLRMMKHIVG]
IL-6; [3]
  Kd: > 10 µM

## Ac-SFRDLLRRMKHIVG-NH2 [Peptide 88, SFRDLLRRMKHIVG]
IL-6; [3]
  Kd: > 10 µM

## Ac-SVRDLIRRMCHIVG-NH2 [Peptide 68, SVRDLIRRMCHIVG]
IL-6; Table 2
  affinity compared with the parent sequence, in words: lowered affinity

## Ac-SVRDLLRMMCHIVG-NH2 [Peptide 69, SVRDLLRMMCHIVG]
IL-6; Table 2
  affinity compared with the parent sequence, in words: no significant effect

## Ac-SVRDLLRRMCVIVG-NH2 [Peptide 66, SVRDLLRRMCVIVG]
IL-6; Table 2
  affinity compared with the parent sequence, in words: slightly better affinity

## Ac-SVRDLLRRMKHIVG-NH2 [Peptide 65, SVRDLLRRMKHIVG]
IL-6; Table 2
  affinity compared with the parent sequence, in words: slightly better affinity

## Ac-TIRDLIRMMKHIVG-NH2 [Peptide 99, TIRDLIRMMKHIVG]
IL-6; [3]
  Kd: > 10 µM

## Ac-TIRDLLRMMKHIVG-NH2 [Peptide 98, TIRDLLRMMKHIVG]
IL-6; [3]
  Kd: > 10 µM

## Ac-TIRDLLRRMCHIVG-NH2 [Peptide 71, TIRDLLRRMCHIVG]
IL-6; Table 2
  affinity compared with the parent sequence, in words: greatly improved

## Ac-TIRDLLRRMKHIVG-NH2 [Peptide 97, TIRDLLRRMKHIVG]
IL-6; [3]
  Kd: > 10 µM

## CVYRDLLRRMCHIVG [Peptide 35]
IL-6; Table 1, termini not protected
  binding affinity compared with parent peptide 9, in words: completely lost binding affinity

## FD(Cha)DIHLL(4F)LPTEWEK(Cla)KNEE (FD[Cha]DIHLL[Phe(4-F)]LPTEWEK[Gla]KNEE) [PN-2519, reference compound]
IL-6
  binding to IL-6, in words: no activity

## FD(hL)DIHLLELPTEWEKDKNEE [PN-1974(2), peptide PN-1974 with termini protected by acetylation and amidation, reference compound]
IL-6
  binding to IL-6, in words: eliminated its activity

## GNSRDLLRRMCHIVG [Peptide 42, GNSRDLLRRMCHIVG]
IL-6; KD (nM) P < 0.05, Table 1, N and C termini not protected, cells printed in μM
  Kd: > 10 µM

## H-ATIRDLLRRMCHIVG-OH [Peptide 38, ATIRDLLRRMCHIVG]
IL-6; Table 1, termini not protected
  binding affinity compared with parent peptide 9, in words: improved binding affinity

## H-ETIRDLLRRMCHIVG-OH [Peptide 24, ETIRDLLRRMCHIVG]
IL-6; Table 1, termini not protected
  binding affinity compared with parent peptide 9, in words: improved binding affinity

## H-FAFRDLLRRMCHIVG-OH [Peptide 45, FAFRDLLRRMCHIVG]
IL-6; Table 1, termini not protected
  binding affinity compared with parent peptide 9, in words: improved binding affinity

## H-SVRDLIRMMCHIVG-OH [Peptide 33, SVRDLIRMMCHIVG]
IL-6; Table 1, termini not protected
  binding affinity compared with parent peptide 9, in words: improved binding affinity

## H-SVRDLLRRMCHIVG-OH [Peptide 9, SVRDLLRRMCHIVG]
IL-6; termini not protected, read-out: KD
  Kd: 2.5 µM

## H-SVRDLLRRMKVCVG-OH [Peptide 27, SVRDLLRRMKVCVG]
IL-6; Table 1, termini not protected
  binding affinity compared with parent peptide 9, in words: improved binding affinity

## INTLLSEINSILLDIISLL [RA07, published control peptide described in Kobayashi et al., Mol Biotechnol 2011, reference compound]
IL-6
  binding to IL-6, in words: did not bind

## LEIRDLLRRMCHIVG [Peptide 26, LEIRDLLRRMCHIVG]
IL-6; [4]
  Kd: > 10 µM

## LGHRDLLRRMCHIVG [Peptide 29, LGHRDLLRRMCHIVG]
IL-6; [4]
  Kd: > 10 µM

## NERRDLLRRMCHIVG [Peptide 41, NERRDLLRRMCHIVG]
IL-6; Table 1, termini not protected
  binding affinity compared with parent peptide 9, in words: reduced binding affinity

## SNYTLLRRMCHIVG [Peptide 36, SNYTLLRRMCHIVG]
IL-6; [4]
  Kd: > 10 µM

## SVHIHLRRMCHIVG [Peptide 34, SVHIHLRRMCHIVG]
IL-6; [4]
  Kd: > 10 µM

## SVKDLQHGLRHVVG [Peptide C1, control peptide homologous to peptide 9, devoid of any mutations; two unmutated fragments of IL-6R, reference compound]
IL-6
  binding to IL-6, in words: no binding

## SVRDLHKMMCHIVG [Peptide 25, SVRDLHKMMCHIVG]
IL-6; [4]
  Kd: > 10 µM

## SVRDLLHGRCHIVG [Peptide 40, SVRDLLHGRCHIVG]
IL-6; [4]
  Kd: > 10 µM

## SVRDLLNRICHIVG [Peptide 21, SVRDLLNRICHIVG]
IL-6; [4]
  Kd: > 10 µM

## SVRDLLRMFCHIVG [Peptide 23, SVRDLLRMFCHIVG]
IL-6; [4]
  Kd: > 10 µM

## SVRDLLRRMCHCVG [Peptide 67]
IL-6
  binding to IL-6, in words: no binding

## SVRDLLRRMCHPRLG [Peptide 46, SVRDLLRRMCHPRLG]
IL-6; [4]
  Kd: > 10 µM

## SVRDLPRIMCHIVG [Peptide 31, SVRDLPRIMCHIVG]
IL-6; [4]
  Kd: > 10 µM

## SVRDLQKOMCHIVG (SVRDLQKQMCHIVG; not fully specified) [Peptide 44]
IL-6; Table 1, termini not protected
  binding affinity compared with parent peptide 9, in words: completely lost binding affinity

## SVRDNFHRMCHIVG [Peptide 30, SVRDNFHRMCHIVG]
IL-6; [4]
  Kd: > 10 µM

## SVRDPHNRMCHIVG [Peptide 22, SVRDPHNRMCHIVG]
IL-6; [4]
  Kd: > 10 µM

## SVRIYLRRMCHIVG [Peptide 20, SVRIYLRRMCHIVG]
IL-6; [4]
  Kd: > 10 µM

## SVSIHLRRMCHIVG [Peptide 32, SVSIHLRRMCHIVG]
IL-6; [4]
  Kd: > 10 µM

B1: Peptide 55 (peptide)
peptide: Ac-TVRDLLRRMCHIVG-NH2
[1]
  Kd: 224 nM

B2: Peptide 56 (peptide)
peptide: Ac-SIRDLLRRMCHIVG-NH2
[1]
  Kd: 305 nM

B3: Peptide 63 (peptide)
peptide: Ac-SFRDLLRRMCHIVG-NH2
[1]
  Kd: 162 nM

B4: Peptide 62 (peptide)
peptide: Ac-AVRDLLRRMCHIVG-NH2
[1]
  Kd: 519 nM
